The conditions of data set [1]: background statement; cited from earlier work.
The nature of data set [2]: Solubility of poorly-soluble UV absorbers in oils: triazine derivative (Test Example 3). The data set is classed as physicochemical. Particulars: 2,4-bis{[4-(2-ethylhexyloxy)-2-hydroxy]phenyl}-6-(4-methoxyphenyl) 1,3,5-triazine dissolved in the oil; supernatant after crystal nuclei, 0° C. The procedure:
(§1) Each of triazine derivative and dibenzoylmethane derivative was warmed and dissolved into each oil shown in Table 2, and then each mixture was cooled to room temperature. After adding crystal nuclei, they were cooled at 0° C. A saturation solubility of each supernatant fluid was measured.
2,4-bis{[4-(2-ethylhexyloxy)-2-hydroxy]phenyl}-6-(4-methoxyphenyl) 1,3,5-triazine was used as triazine derivative.

The nature of data set [3]: Solubility of poorly-soluble UV absorbers in oils: dibenzoylmethane derivative (Test Example 3). Type of data set: physicochemical. Particulars: 4-tert-butyl-4′-methoxydibenzoylmethane dissolved in the oil; supernatant after crystal nuclei, 0° C. The procedure: as §1
4-tert-butyl-4′-methoxydibenzoylmethane was used as a dibenzoylmethane derivative (i.e. component (a)).

Consider `COc1ccc(C(=O)CC(=O)c2ccc(C(C)(C)C)cc2)cc1` [4-tert-butyl-4′-methoxydibenzoylmethane], for which the absorption maximum entry in data set [1] was “around 360 nm”.
Regarding `CCCCCCCC(=O)OCC(COC(=O)CCCCCCC)(COC(=O)CCCCCCC)COC(=O)CCCCCCC` [Pentaerithrityl tetraoctanoate], the “Saturation solubility of triazine derivative” value in data set [2] is recorded as 4%. Also, the “Saturation solubility of dibenzoylmethane derivative” value in data set [3] amounted to 6%.

The values are drawn from patent publication US8282910B2, “Composition for skin or hair” (Shiseido Company Ltd., priority 2007, dated 2012).
